The source of these data is patent publication US20050227337A1, “Method for producing ascorbic acid intermediates” (priority 1998, published 2005).

Assay [1] has as its system reductase and glucose dehydrogenase (GDH). Put plainly: NADPH/NADP+ ratio in cofactor recycling reaction (absorbance at 340 nm). It is filed as biochemical. To be noted: final concentration 0.5 M NaCl; room temperature, pH 7. Here is the method:
Therefore, if the two cofactors are mixed together, the amount of NADPH present can be determined by the absorbance at 340 nm. If the amount of NADP+ originally added is also known, the ratio of the two cofactors can then be easily determined. This method can be used to measure how the addition of various components to a reaction, such as a cofactor recycling reaction, affects the reaction equilibrium.
A 1 ml reaction was set up in a cuvette at room temperature. The reaction consisted of buffer (50 mM bis-tris, pH 7), 5 mg glucose, 5 mg 2,5-DKG, 100 uM NADPH, 100 uM NADP+, reductase and glucose dehydrogenase (GDH). The enzymes were added last to initiate the reaction, and the cofactor levels were monitored at 340 nm. After equilibrium was reached (FIG. 7), an additional aliquot of GDH was added. Very quickly the equilibrium shifted to favor more NADPH being present. Addition of more GDH gave the same response.
Another 1 ml incubation was set up as above. After it reached equilibrium, 29 mg of NaCl was added to it to give a final concentration of 0.5 M NaCl.

A further assay has as its target T1, GDH from T. acidophilum (Thermoplasma acidophilum, UniProt P13203).
T1 construct: purchased Sigma
T1 sequence (P13203 1-361): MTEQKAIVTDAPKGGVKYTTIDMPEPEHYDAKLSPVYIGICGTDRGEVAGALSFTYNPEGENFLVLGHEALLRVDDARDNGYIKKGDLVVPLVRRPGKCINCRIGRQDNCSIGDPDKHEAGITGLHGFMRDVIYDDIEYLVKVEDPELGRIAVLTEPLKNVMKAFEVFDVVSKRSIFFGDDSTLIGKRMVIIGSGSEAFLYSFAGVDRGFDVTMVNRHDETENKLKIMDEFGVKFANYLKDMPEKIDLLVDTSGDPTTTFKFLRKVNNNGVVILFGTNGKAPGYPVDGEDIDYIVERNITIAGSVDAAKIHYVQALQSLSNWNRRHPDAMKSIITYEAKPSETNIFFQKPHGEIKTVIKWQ
Put plainly: GDH activity in the presence of methanol. It is filed as biochemical. To be noted: incubated with 10% methanol; 50 mM Tris, pH 7.

Assay [2] deals with D-gluconic acid dehydrogenase. The assay can be described thus: D-gluconic acid dehydrogenase activity in permeabilized cells with methanol (product formation, HPLC). The settings on record: permeabilized cells with 15% MeOH and gluconic acid. It is filed as biochemical, P. citrea. The procedure:
(§1) 400 ml of P. citrea cells having a mutation in the naturally occurring membrane bound GDH was grown to 80 OD (600 nm) in 10 g/L gluconate, and mixed with 16 ml of a mixture of 10% toluene and 90% acetone for 3 minutes at 22 C. The permeabilized cells were then centrifuged for 10 minutes at 9000 rpm, and the resulting cell pellet was washed with 400 ml of 50 mM tris, pH 7. The washings were repeated twice more to ensure removal of residual organic solvent.
(§2) Permeabilized cells were incubated with 15% MeOH and gluconic acid.

Assay [3] deals with 2-keto-D-gluconic acid dehydrogenase. The assay can be described thus: 2-keto-D-gluconic acid dehydrogenase activity in permeabilized cells with methanol (product formation, HPLC). The assay is classed as biochemical, P. citrea. To be noted: permeabilized cells with 15% MeOH and gluconic acid. The procedure: as §1, §2
For assay [4], the system named is 2-keto-D-gluconate dehydrogenase. To be noted: reported by Shinagawa and Ameyama (1982); cited from earlier work.

For the compound `[Cl-].[Na+]` [NaCl, sodium chloride], in assay [1], the “shift of NADPH/NADP+ equilibrium” value is listed as “dramatically shifted the equilibrium to favor the presence of NADPH”. Take `CO` [methanol]: the GDH activity result on GDH from T. acidophilum was “small decrease in activity”. For the same compound, in assay [2], the “activity of D-gluconic acid dehydrogenase” value is reported as “not significantly affected”. The “activity of 2-keto-D-gluconic acid dehydrogenase” value in assay [3] is recorded as “not significantly affected”. As for `O=C(O)CCC(=O)O` [succinate], the “effect on 2-keto-D-gluconate dehydrogenase” value in assay [4] was “inhibit”.

Take `O=C(O)CC(O)(CC(=O)O)C(=O)O` [citrate]: the “effect on 2-keto-D-gluconate dehydrogenase” value in assay [4] was “inhibit”.
